Among the data in patent publication US9044015B2, “Heterocyclic compounds as pesticides” (Bayer CropScience AG, priority 2010, dated 2015) are chromatographic logP and pest or weed control values, retold here.

SMILES strings stand for the structures. Structures can show the parent of a compound that is named as a salt. Where two headings read alike, the source gives them in different places.

Series [1] is described as follows: Determination of the log P values (formic acid method). The procedure:
1) Description of Method for Determination of the log P Values (Formic Aid Method)
Eluents for determination in the acidic range (pH 3.4):
Eluent A: acetonitrile+1 ml of formic acid/liter. Eluent B: water+0.9 ml of formic acid/liter.
The lambda max values were determined in the maxima of the chromatographic signals using the UV spectra from 200 nm to 400 nm.

In another series the test system is Myzus persicae. In words: Myzus test (spray treatment). The series is classed as in vivo. As to conditions: foliar, read-out: efficacy in % (aphids killed). Here is the method: Solvent 78 parts by weight of acetone • • 1.5 parts by weight of dimethylformamide
Emulsifier: 0.5 part by weight of alkylaryl polyglycol ether
To prepare an appropriate active ingredient preparation, 1 part by weight of active ingredient is mixed with the stated amounts of solvent and emulsifier, and the concentrate is diluted with emulsifier-containing water to the desired concentration.

The mark [2] stands for this setting: reverse-phase C18 HPLC column, pH 3.4, logP (HCOOH), intermediates tables, HPLC reverse-phase C18, acidic range pH 3.4, 55° C.
The mark [3] stands for this setting: application rate 500 g/ha, sprayed Chinese cabbage leaf discs, all stages of green peach aphid.
Where [4] appears, read: reverse-phase C18 HPLC column, pH 3.4, logP (HCOOH), final compounds table, HPLC reverse-phase C18, acidic range pH 3.4, 55° C.
[5] abbreviates: reverse-phase C18 HPLC column, pH 3.4, log P (HCOOH), preparation examples, HPLC-MS.

Molecule `NS(=O)(=O)c1cccc(-c2cnn(-c3cncc(F)c3)c2)n1` [XVII-2] gave a chromatographic logP in series [1] (setting [2]) of 1.44.

As to `Cc1noc(C)c1S(=O)(=O)NC(=O)c1cccc(-c2cnc(-c3cncc(F)c3)s2)n1` [Compound 58], the pest or weed control at 500 g/ha in the series with Myzus persicae (setting [3]) came to 100%. The chromatographic logP in series [1] (setting [4]) came to 3. `CS(=O)(=O)Nc1cccc(-c2cnn(-c3cccnc3)c2)n1` [Compound 1, N-{6-[1-(Pyridin-3-yl)-1H-pyrazol-4-yl]pyridin-2-yl}methanesulphonamide]: in the series with Myzus persicae (setting [3]), the pest or weed control at 500 g/ha amounted to 80%. For the same molecule, the chromatographic logP in series [1] (pH 3.4, log P (HCOOH)) amounted to 1.26; in series [1] (pH 3.4, logP (HCOOH)) it was 1.26.

As for `O=C(NS(=O)(=O)CC(F)(F)F)c1cccc(-c2cnc(-c3cncc(F)c3)s2)n1` [Compound 57], the pest or weed control at 500 g/ha in the series with Myzus persicae (setting [3]) worked out at 100%. This molecule came in with a chromatographic logP in series [1] (pH 3.4, logP (HCOOH)) of 2.58.

Take `Cc1nc(-c2cncc(F)c2)sc1-c1cc(C(=O)NS(C)(=O)=O)n(C)n1` [Compound 63, 3-[2-(5-Fluoropyridin-3-yl)-4-methyl-1,3-thiazol-5-yl]-1-methyl-N-(methylsulphonyl)-1H-pyrazole-5-carboxamide]: the pest or weed control at 500 g/ha in the series with Myzus persicae (setting [3]) was found to be 80%. Further, the chromatographic logP in series [1] (setting [5]) and in series [1] (setting [4]) was 2.04 throughout. As for `CC(=O)Nc1nnc(S(=O)(=O)NC(=O)c2cccc(-c3nnc(-c4cncc(F)c4)s3)n2)s1` [Compound 76], the pest or weed control at 500 g/ha with Myzus persicae (setting [3]) turned out to be 100%. The chromatographic logP in series [1] (setting [4]) came to 1.43. Take `CCN(CC)S(=O)(=O)NC(=O)c1cccc(-c2cnn(-c3cncnc3)c2)n1` [Compound 38]: the pest or weed control at 500 g/ha in the series on Myzus persicae (setting [3]) stood at 90%. The same molecule returned a chromatographic logP in series [1] (pH 3.4, logP (HCOOH)) of 2.36. In series [1] (setting [2]), `c1ncc(-c2nccs2)cn1` [XIII-3] came in with a chromatographic logP of 0.69. The molecule `CS(=O)(=O)NC(=O)c1cccc(-c2cnn(-c3cncc(F)c3)c2)n1` [Compound 4, 6-[1-(5-Fluoropyridin-3-yl)-1H-pyrazol-4-yl]-N-(methylsulphonyl)pyridine-2-carboxamide] gave a chromatographic logP in series [1] (setting [5]) of 1.98. `Clc1cncc(-c2nccs2)c1` [XIII-2] returned a chromatographic logP in series [1] (setting [2]) of 1.94.

Take `CN(C)S(=O)(=O)NC(=O)c1cccc(Br)n1` [XII-2]: the chromatographic logP in series [1] (setting [2]) came to 1.82. Take `CC(=O)NS(=O)(=O)c1cccc(Br)n1` [XIV-2, N-[(6-Bromopyridin-2-yl)sulphonyl]acetamide]: the chromatographic logP in series [1] (setting [5]) and in series [1] (setting [2]) was 0.95 in each case.

As for `COCCS(=O)(=O)NC(=O)c1cccc(-c2nnc(-c3cncc(F)c3)s2)n1` [Compound 74], the pest or weed control at 500 g/ha in the series with Myzus persicae (setting [3]) came out at 90%. This molecule also gave a chromatographic logP in series [1] (pH 3.4, logP (HCOOH)) of 1.97.

As for `CC(C1CC1)N(C)S(=O)(=O)NC(=O)c1cccc(-c2cnc(-c3cncc(F)c3)s2)n1` (stereo not drawn) [Compound 61], the pest or weed control at 500 g/ha with Myzus persicae (setting [3]) worked out at 100%. In series [1] (pH 3.4, logP (HCOOH)), this molecule had a chromatographic logP of 3.47. In the case of `O=C(NS(=O)(=O)c1ccccc1)c1cccc(-c2cnn(-c3cncnc3)c2)n1` [Compound 23], the pest or weed control at 500 g/ha in the series with Myzus persicae (setting [3]) came out at 90%. For the same molecule, the chromatographic logP in series [1] (setting [4]) came to 2.24. In series [1] (setting [5]), `O=C(O)c1cccc(-c2cnc(-c3cncc(F)c3)s2)n1` [6-[2-(5-Fluoropyridin-3-yl)-1,3-thiazol-5-yl]pyridine-2-carboxylic acid] showed a chromatographic logP of 1.72.

As for `O=C(NS(=O)(=O)Cc1ccccc1)c1cccc(-c2cnn(-c3cccnc3)c2)n1` [Compound 35], the pest or weed control at 500 g/ha in the series on Myzus persicae (setting [3]) was 100%. The chromatographic logP in series [1] (pH 3.4, logP (HCOOH)) was found to be 2.44. The molecule `NS(=O)(=O)c1cccc(-c2cnn(-c3cncnc3)c2)n1` [XVII-3] displayed a chromatographic logP in series [1] (pH 3.4, logP (HCOOH)) of 0.89. Turning to `CCOC(=O)c1cc(-c2sc(-c3cncc(F)c3)nc2C)nn1C` [Ethyl 3-[2-(5-fluoropyridin-3-yl)-4-methyl-1,3-thiazol-5-yl]-1-methyl-1H-pyrazole-5-carboxylate], in series [1] (pH 3.4, log P (HCOOH)), the chromatographic logP worked out at 3.7. Turning to `CS(=O)(=O)NC(=O)c1cccc(-c2cnc(-c3cncnc3)s2)n1` [Compound 8], the pest or weed control at 500 g/ha with Myzus persicae (setting [3]) worked out at 100%. The molecule also displayed a chromatographic logP in series [1] (setting [4]) of 1.48. With `CN(C)S(=O)(=O)NC(=O)c1cccc(-c2cnn(-c3cncc(F)c3)c2)n1` [Compound 16], the pest or weed control at 500 g/ha with Myzus persicae (setting [3]) was 100%. Moreover, the chromatographic logP in series [1] (setting [4]) was found to be 2.42. In series [1] (setting [2]), `CS(=O)(=O)NC(=O)c1cccc(Cl)n1` [XII-3] registered a chromatographic logP of 1.15. `COC(=O)c1cccc(-c2cnc(-c3cncc(F)c3)s2)n1` [Methyl 6-[2-(5-fluoropyridin-3-yl)-1,3-thiazol-5-yl]pyridine-2-carboxylate] registered a chromatographic logP in series [1] (pH 3.4, log P (HCOOH)) of 2.37.

In series [1] (setting [2]), `O=C(NS(=O)(=O)Cc1ccccc1)c1cccc(Br)n1` [XII-1] had a chromatographic logP of 2.4. Still for that read-out and setting: then `CCS(=O)(=O)NC(=O)c1cccc(Br)n1` [XII-5], with 1.54. As to `CS(=O)(=O)NC(=O)c1cccc(-c2cnc(-c3cncc(Cl)c3)s2)n1` [Compound 17], the pest or weed control at 500 g/ha in the series with Myzus persicae (setting [3]) amounted to 100%. The molecule also came in with a chromatographic logP in series [1] (setting [4]) of 2.4. As for `COCCS(=O)(=O)Nc1cccc(-c2cnn(-c3cccnc3)c2)n1` [Compound 10], the pest or weed control at 500 g/ha in the series with Myzus persicae (setting [3]) is 80%. In series [1] (pH 3.4, logP (HCOOH)), this molecule registered a chromatographic logP of 1.43. `O=C(NS(=O)(=O)C1CC1)c1cccc(Br)n1` [XII-7]: the chromatographic logP in series [1] (setting [2]) was determined as 1.7. With `CC(C)N(C)S(=O)(=O)NC(=O)c1cccc(-c2cnc(-c3cncc(F)c3)s2)n1` [Compound 60], in the series on Myzus persicae (setting [3]), the pest or weed control at 500 g/ha worked out at 100%. In series [1] (pH 3.4, logP (HCOOH)), the chromatographic logP was 3.09. On to `O=C(NS(=O)(=O)c1ccccc1)c1cccc(-c2cnc(-c3cncc(F)c3)s2)n1` [Compound 13], for which, in the series with Myzus persicae (setting [3]), the pest or weed control at 500 g/ha came to 100%. In series [1] (setting [4]), this molecule registered a chromatographic logP of 2.94. As for `CC(=O)NS(=O)(=O)c1cccc(-c2cnn(-c3cccnc3)c2)n1` [Compound 41, N-({6-[1-(Pyridin-3-yl)-1H-pyrazol-4-yl]pyridin-2-yl}sulphonyl)acetamide], in the series on Myzus persicae (setting [3]), the pest or weed control at 500 g/ha was found to be 100%. The chromatographic logP in series [1] (pH 3.4, log P (HCOOH)) turned out to be 1.17; in series [1] (pH 3.4, logP (HCOOH)) it was 1.17.

For the molecule `CCS(=O)(=O)Nc1cccc(-c2cnn(-c3cccnc3)c2)n1` [Compound 19], the pest or weed control at 500 g/ha in the series on Myzus persicae (setting [3]) was 100%. The same molecule came in with a chromatographic logP in series [1] (pH 3.4, logP (HCOOH)) of 1.48.

`Fc1cncc(-c2nccs2)c1` [XIII-1, 3-Fluoro-5-(1,3-thiazol-2-yl)pyridine]: the figures for the chromatographic logP in series [1] (setting [5]) and in series [1] (setting [2]) were 1.48 and 1.51, respectively. `N#Cc1cccc(-c2cnc(-c3cncc(F)c3)s2)n1` [6-[2-(5-Fluoropyridin-3-yl)-1,3-thiazol-5-yl]pyridine-2-carbonitrile] returned a chromatographic logP in series [1] (setting [5]) of 2.51. Take `O=C(NS(=O)(=O)c1ccccc1)c1cccc(Br)n1` [XII-6]: the chromatographic logP in series [1] (setting [2]) was 2.32.

`CC1(C)OB(c2cnn(-c3cccnc3)c2)OC1(C)C` [3-[4-(4,4,5,5-Tetramethyl-[1,3,2]dioxaborolan-2-yl)pyrazol-1-yl]pyridine]: the chromatographic logP in series [1] (pH 3.4, log P (HCOOH)) was found to be 2.19. In the case of `Brc1cnn(-c2cccnc2)c1` [3-(4-Bromopyrazol-1-yl)pyridine], in series [1] (setting [5]), the chromatographic logP came to 1.56.

For the molecule `N=C(N)c1cccc(-c2cnc(-c3cncc(F)c3)s2)n1` [Compound 79, 6-[2-(5-Fluoropyridin-3-yl)-1,3-thiazol-5-yl]pyridine-2-carboxamide amide hydrochloride (1:1)], the chromatographic logP in series [1] (setting [5]) is 0.71. The molecule `CCOC(=O)C(=O)CC(=O)c1sc(-c2cncc(F)c2)nc1C` [Ethyl 4-[2-(5-fluoropyridin-3-yl)-4-methyl-1,3-thiazol-5-yl]-2,4-dioxobutanoate] showed a chromatographic logP in series [1] (pH 3.4, log P (HCOOH)) of 3.37. `Cc1nc(-c2cncc(F)c2)sc1-c1cc(C(=O)O)n(C)n1` [3-[2-(5-Fluoropyridin-3-yl)-4-methyl-1,3-thiazol-5-yl]-1-methyl-1H-pyrazole-5-carboxylic acid] came in with a chromatographic logP in series [1] (setting [5]) of 2.05. On to `CS(=O)(=O)NC(=O)c1cccc(-c2cn[nH]c2)n1` [N-(Methylsulphonyl)-6-(1H-pyrazol-4-yl)pyridine-2-carboxamide], for which the chromatographic logP in series [1] (setting [5]) is 0.91. Take `CS(=O)(=O)NC(=O)c1csc(Br)n1` [XV-1, 2-Bromo-N-(methylsulphonyl)-1,3-thiazole-4-carboxamide]: the figures for the chromatographic logP in series [1] (setting [5]) and in series [1] (setting [2]) were 0.83 and 0.82, respectively. Turning to `N=C(N)c1cccc(-c2cnc(-c3cccnc3)s2)n1` [Compound 48], in the series on Myzus persicae (in Brassica rapa), the pest or weed control at 500 g/ha was 90%. On to `Nc1cccc(-c2cnn(-c3cccnc3)c2)n1` [6-[1-(Pyridin-3-yl)-1H-pyrazol-4-yl]pyridine-2-amine], for which the chromatographic logP in series [1] (setting [5]) was determined as 0.3. As to `NS(=O)(=O)c1cccc(-c2cnn(-c3cccnc3)c2)n1` [XVII-1, 6-[1-(pyridin-3-yl)-1H-pyrazol-4-yl]pyridine-2-sulphonamide], the chromatographic logP in series [1] (setting [5]) and in series [1] (setting [2]) was 0.99 throughout. Regarding `CS(=O)(=O)NC(=O)c1nc(Br)cs1` [XVI-1, 4-Bromo-N-(methylsulphonyl)-1,3-thiazole-2-carboxamide], the chromatographic logP in series [1] (setting [5]) and in series [1] (setting [2]) was 0.63 in each case. In the case of `CS(=O)(=O)NC(=O)c1cccc(Br)n1` [XII-4, 6-Bromo-N-(methylsulphonyl)pyridine-2-carboxamide], the chromatographic logP in series [1] (setting [5]) is 1.21; in series [1] (setting [2]), 1.28. In series [1] (setting [2]), `N#Cc1cncc(-c2nccs2)c1` [XIII-4] yielded a chromatographic logP of 1.34.
